“And” between values parts separate entries of the source, which are not always exact repeats. Identical values can stand only once.
Legend:
[1] = tested on: normal kidney HEK293 cells; parameters: method as in PMID 29123378; details: cited from earlier work
[2] = tested on: A2780 ovarian cancer cells; parameters: method as in PMID 29123378; details: A2780, dose-dependent inhibition; cited from earlier work
[3] = tested on: normal fibroblast HFF-1 cell line; parameters: method as in PMID 26950280; details: cited from earlier work
BEAS-2B cells = assay: Live Cell Analyzer microscopic observation, BEAS-2B; type: cell-based, human; details: 72 h; for survival fraction in comparison to the untreated controls: 50 µM, images; for morphological observation: 100 µM
Source text: (§1) The cells stayed mostly unattached and floating with some shrunken, which indicates a late stage of apoptosis and necrosis. Using cancer cell lines A549 and H1299, the cellular apoptotic and necrotic death was confirmed, followed by cell cycle cytometric analysis for the sub-G1 fraction (please compare Figure 4 and Figure 5). […] Such observations additionally explained the results of Annexin-V apoptosis assays, where some of the cells, mainly carcinomas, presented an early apoptosis fraction (Figure 6, Figure 7 and Figure 8).
(§2) Microscopic observation and images acquisition with Live Cell Analyzer (JuLI™ Br; NanoEnTek Inc., Seoul, Korea) was used to directly observe on-plate confluence, density, and cell viability and images acquisitions.

[4] = tested on: human lung carcinoma A549 and non-small lung carcinoma H1299; assay: MTT viability assay, summary over lung carcinoma lines; type: cell-based; details: range over DPT-1 and DPT-2 in A549 and H1299
Source text: DPT-1 and DPT-2 initiated a biological response in the investigated cancer models with a different mechanism and at a different rate. Based on these findings, it can be concluded that DPT-1 and DPT-2 have potential as chemotherapeutic agents.
(§3) Examination of cytotoxicity using MTT assay is the most convenient and fastest method for screening of cytotoxic action of the drugs. MTT assay is a colorimetric method for evaluation of cell viability based on mitochondrial dehydrogenase enzyme activity. The survival rate of the cells was calculated relative to the control cells, grown in standard conditions. Using this assay, IC50 values were calculated for each cell line treated with standard compounds and drugs. For […] assay, cells were seeded in 96-well plates at 1 × 10^4 cells/well in 0.2 mL completed medium 24 h before drug treatment. In the next step, cells were incubated for 72 h with the compounds (doses: 100; 50; 25; 12.5; 6.25; 3.15 and 1.56 µM) and then were washed three times with PBS (PAA, Laboratories GmbH, Cölbe, Germany). […] The levels of absorbance were measured at a wavelength of λ = 570 nm using a microplate spectrophotometer (Epoch; BioTek, Winooski, VT, USA) and expressed as a % of the untreated control, named the survival fraction [SF] […]

A549 cells [5] = assay: Annexin-V apoptosis assay with PI staining, A549; type: cell-based, human; details: 72 h; for type of cellular death at lower doses: A549, 0.78–12.5 µM; for type of cellular death at higher doses: A549, 25–100 µM
Procedure: (§4) Followed by Annexin-V apoptosis assay after 72 h of incubation with DPT-1 and DPT-2 at a dose of 50 µM, the type of cellular death is possible to determine (Figure 6 and Figure 7). […] After 72 h of incubation of cells in both controls, some of the early and late apoptotic cells were observable, without necrotic ones.
(§5) Many drugs work by inhibiting cell proliferation and causing cell cycle blockage. Using flow cytometry, the impact of new compounds on the cell cycle were determined. Cells incubated with compound were also analyzed for cellular death pathways, apoptosis induction, followed by Annexin-V assay. Annexin-V is a protein that binds phosphatidylserine and allows early detection of apoptosis; additionally, iodium propide staining distinguishes it from necrosis. For apoptosis and cell cycle assays the cell cultures were plated in 6-well plates at a confluence of 1 × 10^5 in 2 mL of completed fresh DMEM-F12 medium, 24 h before drugs addition. An Aria III flow cytometer (Becton Dickinson; Franklin Lakes, NJ, USA) was used. The flow cytometry analysis was done on a free Flowing Software 2.5.1 program (by Perttu Terho, the Cell Imaging and Cytometry Core, Turku Bioscience Centre, Turku, Finland, with the support of Biocenter Finland).

H1299 = assay: MTT viability assay, H1299; type: cell-based; details: Homo sapiens, NCI-H1299, H1299, 72 h of incubation, mean of three experiments ± SD
Procedure: (§6) A standard anticancer drug, such as doxorubicin, was simultaneously used at the same concentrations range: 100, 50, 25, 12.5, 6.25, 3.15, 1.56 µM.
(§7) Biological experiments were conducted on a panel of cancer cell lines, adenocarcinoma human alveolar basal epithelial cells (A549), and human non-small cell lung carcinoma cell line (H1299). In order to determine the potential side effects of treatments, research was performed simultaneously on the human bronchial epithelial cells (BEAS-2B) and normal human dermal fibroblasts (NHDF); all cells received were received from the ATCC collections (Manassas, VA, USA). Cells were grown in DMEM F-12 medium (PAA, Warsaw, Poland) supplemented with 10% (v/v) heat-inactivated FBS (Eurx, Gdańsk, Poland) and 100 units/mL penicillin and 100 μg/mL streptomycin (Sigma-Aldrich, Darmstadt, Germany) at 37 °C in a humidified atmosphere with 5% CO2 [23, 27, 29].
as §3

H1299 cells [6] = assay: Annexin-V apoptosis assay with PI staining, H1299; type: cell-based, human; details: H1299, 50 µM, 72 h
Procedure: as §4, §5

normal heart H9C2 cells = tested on: normal heart H9C2 cells; parameters: method as in PMID 29123378; details: cited from earlier work
A549 = assay: MTT viability assay, A549; type: cell-based; details: Homo sapiens, A549, 72 h of incubation, mean of three experiments ± SD
Procedure: as §6, §7, §3

BEAS-2B = assay: MTT viability assay, BEAS-2B; type: cell-based; details: Homo sapiens, 72 h of incubation, mean of three experiments ± SD
Procedure: as §6, §7, §3

A549 cells [7] = assay: Live Cell Analyzer microscopic observation, A549; type: cell-based, human; details: 72 h; for survival fraction in comparison to the untreated controls: A549, 50 µM, images; for morphological observation: A549, 100 µM
Source text: as §1, §2

A549 cells [8] = assay: Cell cycle analysis via flow cytometry, A549; type: cell-based, human; details: A549, 50 µM, 72 h
Procedure: A lowered viability, followed by the MTT assay, could be a perfect indicator of the anticancer potential of drugs. However, this procedure measures the mitochondrial activity of the enzymatic complex. The real cytotoxicity against the antiproliferative action of drugs could be distinguished using the next step procedure, a cytometric cell cycle distribution, compared to the untreated controls. For that reason, the cell cycle was measured, followed by 72 h of incubation with DPT-1 and DPT-2. High doses of phenothiazines (50 µM) arrested the cell cycle at different phases, dependent on the cancer cell line. […] The phenomenon of sub-G1 phase reduction (lowered necrotic/apoptotic and general dead cells fraction), in comparison to the untreated control, could be explained by the cytostatic potential of phenothiazines. […] The MTT estimations of cells viability, calculated from the lowered absorbance, resulted from the antiproliferative and cytostatic role of DPT-1 and DPT-2 in the A549 cell line for S and G2/M cell cycle phases.
Many drugs work by inhibiting cell proliferation and causing cell cycle blockage. Using flow cytometry, the impact of new compounds on the cell cycle were determined. Cells incubated with compound were also analyzed for cellular death pathways, apoptosis induction, followed by Annexin-V assay. […]

H1299 cells [9] = assay: Cell cycle analysis via flow cytometry, H1299; type: cell-based, human; details: H1299, 50 µM, 72 h
Procedure: as §5

NHDF = assay: MTT viability assay, NHDF; type: cell-based; details: Homo sapiens, 72 h of incubation, mean of three experiments ± SD
Procedure: as §6, §7, §3

[10] = tested on: glioblastoma SNB-19, melanoma C-32, and breast cancer MCF-7 cell lines; parameters: method as in PMID 26950280; details: SNB-19, C-32 and MCF-7 cell lines; cited from earlier work
[11] = tested on: normal human dermal fibroblasts NHDF; parameters: method as in PMID 30981160; details: cited from earlier work
[12] = tested on: glioblastoma SNB-19, colorectal carcinoma Caco-2, breast cancer MDA-MB-231, and lung cancer A549 cell lines; parameters: method as in PMID 30981160; details: range over SNB-19, Caco-2, MDA-MB-231 and A549; cited from earlier work

Structure (SMILES) | survival fraction in comparison to the untreated controls (BEAS-2B cells) | morphological observation (BEAS-2B cells) | IC50 [4] [µM] | type of cellular death (A549 cells [5]; A549, 50 µM) | type of cellular death at lower doses (A549 cells [5]) | type of cellular death at higher doses (A549 cells [5]) | IC50 (H1299) [µM] | type of cellular death (H1299 cells [6]) | IC50 (A549) [µM] | IC50 (BEAS-2B) [µM] | survival fraction in comparison to the untreated controls (A549 cells [7]) | morphological observation (A549 cells [7]) | cell cycle arrest (A549 cells [8]) | cell cycle effect (H1299 cells [9]) | IC50 (NHDF) [µM] | further results
c1cnc2c(c1)Nc1ccncc1S2 [DPT-1, 10H-3,6-diazaphenothiazine] | 5–30% | typical morphological changes for cellular death | 1.52 to 12.9 | pro-apoptotic activity | necrosis is visible | induced cellular death via an apoptosis pathway | 2.515 ± 0.005 | pro-apoptotic activity | 1.526 ± 0.004 | 2.468 ± 0.01 | 5–30% | typical morphological changes for cellular death | S and G2/M arrest | cell cycle is stopped in the G0/G1-phase | 2.246 ± 0.01 | cytotoxicity compared with A2780 [1]: significantly less cytotoxicity; IC50 [2]: 0.62 µM; action against normal cells [3]: non-toxic action; cells apoptotic (late apoptotic fraction, Annexin-V+/PI+) (A549 cells [5]; A549, 50 µM): ~90%; cells apoptotic (late apoptotic fraction, Annexin-V+/PI+) (H1299 cells [6]): ~90%; cytotoxicity compared with A2780 (normal heart H9C2 cells): significantly less cytotoxicity; IC50 [10]: 0.46 µg/mL and 0.72 µg/mL
CN(C)CCCN1c2cnc3ccccc3c2Sc2cc3ccccc3nc21 [DPT-2, 7-(3′-dimethylaminopropyl)diquinothiazine] | 5–30% | typical morphological changes for cellular death | 1.52 to 12.9 | induced apoptosis, as well as necrosis | induced early apoptosis | induced toxic, necrotic death | 12.89 ± 0.013 | induced apoptosis, as well as necrosis | 3.45 ± 0.054 | 11.26 ± 0.038 | 5–30% | typical morphological changes for cellular death | S and G2/M arrest | strong cytotoxic effect | 18.77 ± 0.038 | cytotoxicity against normal cells [11]: low cytotoxicity; tested population necrotic (Annexin-V−/PI+) (A549 cells [5]; A549, 50 µM): circa 30%; tested population necrotic (Annexin-V−/PI+) (H1299 cells [6]): circa 30%; IC50 [12]: 0.3 to 3.44 µM
COc1cccc2c1C(=O)c1c(O)c3c(c(O)c1C2=O)C[C@@](O)(C(=O)CO)C[C@@H]3O[C@H]1C[C@H](N)[C@H](O)[C@H](C)O1 [doxorubicin, reference compound] |  |  |  |  |  |  | 7.749 ± 0.004 |  | 5.289 ± 0.004 | < 1.56 |  |  |  |  | > 100 | 
